# Measured values published in patent publication US10344060B2 (priority 2013, dated 2019).
# Biological target: hNav1.7 (Homo sapiens, UniProt Q15858)
# Test: cell-based
# Assay type: cell-based
# Details: PatchXpress Nav1.7, whether block washes out (Yes/No)
# Chain of hNav1.7 (Q15858 whole entry): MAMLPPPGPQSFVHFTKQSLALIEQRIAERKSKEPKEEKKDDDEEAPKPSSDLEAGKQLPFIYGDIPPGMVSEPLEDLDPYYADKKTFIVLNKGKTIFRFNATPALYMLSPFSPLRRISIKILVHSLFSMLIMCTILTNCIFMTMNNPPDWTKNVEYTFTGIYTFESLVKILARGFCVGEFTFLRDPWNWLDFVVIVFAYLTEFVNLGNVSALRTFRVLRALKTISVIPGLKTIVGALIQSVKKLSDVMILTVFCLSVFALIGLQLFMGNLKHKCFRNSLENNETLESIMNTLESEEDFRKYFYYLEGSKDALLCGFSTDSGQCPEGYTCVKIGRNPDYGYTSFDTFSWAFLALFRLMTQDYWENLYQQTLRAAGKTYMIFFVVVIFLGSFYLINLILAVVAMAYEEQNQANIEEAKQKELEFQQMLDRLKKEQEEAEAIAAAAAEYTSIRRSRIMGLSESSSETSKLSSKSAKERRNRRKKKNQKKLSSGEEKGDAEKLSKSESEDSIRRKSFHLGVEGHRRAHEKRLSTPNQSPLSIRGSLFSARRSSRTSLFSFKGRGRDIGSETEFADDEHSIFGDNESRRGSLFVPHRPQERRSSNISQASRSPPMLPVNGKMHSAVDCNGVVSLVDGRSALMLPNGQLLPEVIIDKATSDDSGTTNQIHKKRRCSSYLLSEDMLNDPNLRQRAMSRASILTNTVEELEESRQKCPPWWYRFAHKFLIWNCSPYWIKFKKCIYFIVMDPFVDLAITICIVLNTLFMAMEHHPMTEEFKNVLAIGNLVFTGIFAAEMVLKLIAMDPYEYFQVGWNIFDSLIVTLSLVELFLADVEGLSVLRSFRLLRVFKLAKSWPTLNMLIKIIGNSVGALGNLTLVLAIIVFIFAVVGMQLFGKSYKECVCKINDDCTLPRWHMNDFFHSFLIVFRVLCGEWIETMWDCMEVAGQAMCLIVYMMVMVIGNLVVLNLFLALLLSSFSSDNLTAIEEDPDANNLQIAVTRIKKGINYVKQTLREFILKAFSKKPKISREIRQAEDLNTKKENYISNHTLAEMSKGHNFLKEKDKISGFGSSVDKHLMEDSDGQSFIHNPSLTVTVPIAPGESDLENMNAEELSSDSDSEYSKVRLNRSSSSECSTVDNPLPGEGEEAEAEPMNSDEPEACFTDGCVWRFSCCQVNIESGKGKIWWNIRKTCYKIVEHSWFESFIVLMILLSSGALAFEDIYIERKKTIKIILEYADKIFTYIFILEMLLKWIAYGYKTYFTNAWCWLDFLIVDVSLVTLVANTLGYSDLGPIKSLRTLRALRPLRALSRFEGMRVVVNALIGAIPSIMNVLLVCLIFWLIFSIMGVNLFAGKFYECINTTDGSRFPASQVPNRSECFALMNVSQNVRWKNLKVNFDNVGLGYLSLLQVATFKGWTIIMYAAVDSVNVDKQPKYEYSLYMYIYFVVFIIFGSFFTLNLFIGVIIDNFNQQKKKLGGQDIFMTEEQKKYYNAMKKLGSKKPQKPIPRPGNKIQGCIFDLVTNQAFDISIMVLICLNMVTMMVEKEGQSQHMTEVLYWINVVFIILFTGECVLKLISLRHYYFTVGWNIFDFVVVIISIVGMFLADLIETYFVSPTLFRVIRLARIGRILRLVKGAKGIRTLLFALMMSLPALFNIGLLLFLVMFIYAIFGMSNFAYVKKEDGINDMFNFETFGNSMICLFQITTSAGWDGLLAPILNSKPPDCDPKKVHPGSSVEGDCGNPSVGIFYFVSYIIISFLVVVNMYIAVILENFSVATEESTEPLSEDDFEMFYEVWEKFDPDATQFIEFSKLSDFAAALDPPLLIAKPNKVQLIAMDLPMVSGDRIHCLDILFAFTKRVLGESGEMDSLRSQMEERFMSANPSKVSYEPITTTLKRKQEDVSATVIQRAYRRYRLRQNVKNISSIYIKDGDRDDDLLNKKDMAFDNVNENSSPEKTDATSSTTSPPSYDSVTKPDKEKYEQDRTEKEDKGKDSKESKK
row,Compound,Wash out
1,CCCC[C@@H]1NC(=O)[C@H](Cc2c[nH]c3ccccc23)NC(=O)[C@H](CCCCN)NC(=O)[C@H](CCC(N)=O)NC(=O)[C@@H](NC(=O)[C@H](Cc2ccc(O)cc2)NC(=O)[C@@H](N)Cc2cn(CCOCCOCCOCCOCCOCCOCCOCCOCCOCCOCCOCCOCCOCCOCCOCCOCCOCCOCCOCCOCCOCCOCCOCCNC(=O)c3cc(CN)cc(C(=O)NCCOCCOCCOCCOCCOCCOCCOCCOCCOCCOCCOCCOCCOCCOCCOCCOCCOCCOCCOCCOCCOCCOCCOCCn4cc(C[C@H](N)C(=O)N[C@@H](Cc5ccc(O)cc5)C(=O)N[C@H]5CSSC[C@@H]6NC(=O)[C@@H]7CSSC[C@@H](C(=O)N[C@@H](CCCNC(=N)N)C(=O)N[C@@H](CCCCN)C(=O)N[C@@H](CCC(=O)O)C(=O)N[C@H](C(N)=O)[C@@H](C)CC)NC(=O)[C@H](Cc8c[nH]c9ccccc89)NC(=O)[C@H](CC(C)C)NC(=O)[C@H](CCCCN)NC(=O)[C@H](CSSC[C@H](NC(=O)[C@H]([C@@H](C)O)NC(=O)[C@H](Cc8c[nH]c9ccccc89)NC(=O)[C@H](CCCC)NC(=O)[C@H](Cc8c[nH]c9ccccc89)NC(=O)[C@H](CCCCN)NC(=O)[C@H](CCC(N)=O)NC5=O)C(=O)N[C@@H](CC(=O)O)C(=O)N[C@@H](CO)C(=O)N[C@@H](CCCCN)C(=O)N[C@@H](CCCNC(=N)N)C(=O)N[C@@H](C)C(=O)N7)NC(=O)[C@H](CCCNC(=N)N)NC(=O)[C@H](CC(C)C)NC(=O)CNC(=O)[C@H](CCC(=O)O)NC6=O)nn4)c3)nn2)CSSC[C@@H]2NC(=O)[C@@H]3CSSC[C@@H](C(=O)N[C@@H](CCCNC(=N)N)C(=O)N[C@@H](CCCCN)C(=O)N[C@@H](CCC(=O)O)C(=O)N[C@H](C(N)=O)[C@@H](C)CC)NC(=O)[C@H](Cc4c[nH]c5ccccc45)NC(=O)[C@H](CC(C)C)NC(=O)[C@H](CCCCN)NC(=O)[C@H](CSSC[C@H](NC(=O)[C@H]([C@@H](C)O)NC(=O)[C@H](Cc4c[nH]c5ccccc45)NC1=O)C(=O)N[C@@H](CC(=O)O)C(=O)N[C@@H](CO)C(=O)N[C@@H](CCCCN)C(=O)N[C@@H](CCCNC(=N)N)C(=O)N[C@@H](C)C(=O)N3)NC(=O)[C@H](CCCNC(=N)N)NC(=O)[C@H](CC(C)C)NC(=O)CNC(=O)[C@H](CCC(=O)O)NC2=O [Homodimeric Peptide No. 7],No

# Same assay, conditions: Table 12; PatchXpress, tonic block; read-out: PX hNav1.7 Tonic IC50
row,Compound,IC50 [nM]
1,C#CC[C@H](N)C(=O)N[C@@H](Cc1ccc(O)cc1)C(=O)N[C@H]1CSSC[C@@H]2NC(=O)[C@@H]3CSSC[C@@H](C(=O)N[C@@H](CCCNC(=N)N)C(=O)N[C@@H](CCCCN)C(=O)N[C@@H](CCC(=O)O)C(=O)N[C@H](C(N)=O)[C@@H](C)CC)NC(=O)[C@H](Cc4c[nH]c5ccccc45)NC(=O)[C@H](CCC)NC(=O)[C@H](CCCCN)NC(=O)[C@H](CSSC[C@H](NC(=O)[C@H]([C@@H](C)O)NC(=O)[C@H](Cc4c[nH]c5ccccc45)NC(=O)[C@H](CCCC)NC(=O)[C@H](Cc4c[nH]c5ccccc45)NC(=O)[C@H](CCCCN)NC(=O)[C@H](CCC(N)=O)NC1=O)C(=O)N[C@@H](CC(=O)O)C(=O)N[C@@H](CO)C(=O)N[C@@H](CCCCN)C(=O)N[C@@H](CCCNC(=N)N)C(=O)N[C@@H](C)C(=O)N3)NC(=O)[C@H](CCCNC(=N)N)NC(=O)[C@H](CC(C)C)NC(=O)CNC(=O)[C@H](CCC(=O)O)NC2=O [compound 857],3.03
2,C#CC[C@H](N)C(=O)N[C@@H](Cc1ccc(O)cc1)C(=O)N[C@H]1CSSC[C@@H]2NC(=O)[C@@H]3CSSC[C@@H](C(=O)N[C@@H](CCCNC(=N)N)C(=O)N[C@@H](CCCCN)C(=O)N[C@@H](CCC(=O)O)C(=O)N[C@H](C(N)=O)[C@@H](C)CC)NC(=O)[C@H](Cc4c[nH]c5ccccc45)NC(=O)[C@H](CC(C)C)NC(=O)[C@H](CCCCN)NC(=O)[C@H](CSSC[C@H](NC(=O)[C@H]([C@@H](C)O)NC(=O)[C@H](Cc4c[nH]c5ccccc45)NC(=O)[C@H](CCCC)NC(=O)[C@H](Cc4c[nH]c5ccccc45)NC(=O)[C@H](CCCCN)NC(=O)[C@H](CCC(N)=O)NC1=O)C(=O)N[C@@H](CC(=O)O)C(=O)N[C@@H](CO)C(=O)N[C@@H](CCCCN)C(=O)N[C@@H](CCCNC(=N)N)C(=O)N[C@@H](C)C(=O)N3)NC(=O)[C@H](CCCNC(=N)N)NC(=O)[C@H](C)NC(=O)CNC(=O)[C@H](CCC(=O)O)NC2=O [compound 703],> 1000
3,C#CC[C@H](N)C(=O)N[C@@H](Cc1ccc(O)cc1)C(=O)N[C@H]1CSSC[C@@H]2NC(=O)[C@@H]3CSSC[C@@H](C(=O)N[C@@H](CCCNC(=N)N)C(=O)N[C@@H](CCCCN)C(=O)N[C@@H](CCC(=O)O)C(=O)N[C@H](C(N)=O)[C@@H](C)CC)NC(=O)[C@H](Cc4c[nH]c5ccccc45)NC(=O)[C@H](CC(C)C)NC(=O)[C@H](CCCCN)NC(=O)[C@H](CSSC[C@H](NC(=O)[C@H]([C@@H](C)O)NC(=O)[C@H](Cc4c[nH]c5ccc(Br)cc45)NC(=O)[C@H](CCCC)NC(=O)[C@H](Cc4c[nH]c5ccccc45)NC(=O)[C@H](CCCCN)NC(=O)[C@H](CCC(N)=O)NC1=O)C(=O)N[C@@H](CC(=O)O)C(=O)N[C@@H](CO)C(=O)N[C@@H](CCCCN)C(=O)N[C@@H](CCCNC(=N)N)C(=O)N[C@@H](C)C(=O)N3)NC(=O)[C@H](CCCNC(=N)N)NC(=O)[C@H](CC(C)C)NC(=O)CNC(=O)[C@H](CCC(=O)O)NC2=O [compound 850],540
4,C#CC[C@@H]1NC(=O)[C@@H]2CSSC[C@H](NC(=O)[C@H](Cc3ccc(O)cc3)NC(=O)[C@@H](N)CC#N)C(=O)N[C@@H](CCC(N)=O)C(=O)N[C@@H](CCCCN)C(=O)N[C@@H](Cc3c[nH]c4ccccc34)C(=O)N[C@@H](CCCC)C(=O)N[C@@H](Cc3c[nH]c4ccccc34)C(=O)N[C@@H]([C@@H](C)O)C(=O)N[C@H]3CSSC[C@H](NC(=O)[C@H](CCCNC(=N)N)NC(=O)[C@H](CC(C)C)NC(=O)CNC1=O)C(=O)N[C@@H](CCCCN)C(=O)N[C@@H](CC(C)C)C(=O)N[C@@H](Cc1c[nH]c4cc(Br)ccc14)C(=O)N[C@H](C(=O)N[C@@H](CCCNC(=N)N)C(=O)N[C@@H](CCCCN)C(=O)N[C@@H](CCC(=O)O)C(=O)N[C@H](C(N)=O)[C@@H](C)CC)CSSC[C@H](NC(=O)[C@H](C)NC(=O)[C@H](CCCNC(=N)N)NC(=O)[C@H](CCCCN)NC(=O)[C@H](CO)NC(=O)[C@H](CC(=O)O)NC3=O)C(=O)N2 [compound 873],8.47

# Same assay, conditions: ratio of PX tonic IC50 values; Table 11
Compound,Nav1.4/Nav1.7,Nav1.5/Nav1.7
CSCC[C@@H]1NC(=O)[C@H](Cc2c[nH]c3ccccc23)NC(=O)[C@H](CCCCN)NC(=O)[C@H](CCC(N)=O)NC(=O)[C@@H](NC(=O)[C@@H](N)Cc2ccc(O)cc2)CSSC[C@@H]2NC(=O)[C@@H]3CSSC[C@@H](C(=O)N[C@@H](CCCNC(=N)N)C(=O)N[C@@H](CCCCN)C(=O)N[C@@H](Cc4ccc(O)cc4)C(=O)N[C@@H](Cc4ccc5ccccc5c4)C(N)=O)NC(=O)[C@H](Cc4c[nH]c5ccccc45)NC(=O)[C@H](CC(C)C)NC(=O)[C@H](CCCCN)NC(=O)[C@H](CSSC[C@H](NC(=O)[C@H]([C@@H](C)O)NC(=O)[C@H](Cc4c[nH]c5ccccc45)NC1=O)C(=O)N[C@@H](CC(=O)O)C(=O)N[C@@H](CO)C(=O)N[C@@H](CCCCN)C(=O)N[C@@H](CCCNC(=N)N)C(=O)N[C@@H](C)C(=O)N3)NC(=O)[C@H](CCC(=O)O)NC(=O)[C@H](CC(C)C)NC(=O)CNC(=O)[C@H](CCC(=O)O)NC2=O [compound 233],265,433
CCCC[C@H](NC(=O)[C@H](Cc1ccc(O)cc1)NC(=O)[C@H](CCCCN)NC(=O)[C@H](CCCNC(=N)N)NC(=O)[C@@H]1CSSC[C@@H]2NC(=O)[C@H](C)NC(=O)[C@H](CCCNC(=N)N)NC(=O)[C@H](CCCCN)NC(=O)[C@H](CO)NC(=O)[C@H](CC(=O)O)NC(=O)[C@@H]3CSSC[C@H](NC(=O)[C@H](CCC(=O)O)NC(=O)[C@H](CC(C)C)NC(=O)CNC(=O)[C@H](CCC(=O)O)NC(=O)[C@H](CSSC[C@H](NC(=O)[C@@H](N)Cc4ccc(O)cc4)C(=O)N[C@@H](CCC(N)=O)C(=O)N[C@@H](CCCCN)C(=O)N[C@@H](Cc4c[nH]c5ccccc45)C(=O)N[C@@H](CCSC)C(=O)N[C@@H](Cc4c[nH]c5ccccc45)C(=O)N[C@@H]([C@@H](C)O)C(=O)N3)NC2=O)C(=O)N[C@@H](CCCCN)C(=O)N[C@@H](CC(C)C)C(=O)N[C@@H](Cc2c[nH]c3ccccc23)C(=O)N1)C(N)=O [compound 239],127,>1575
CCCC[C@@H]1NC(=O)[C@H](Cc2c[nH]c3ccccc23)NC(=O)[C@H](CCCCN)NC(=O)[C@H](CCC(N)=O)NC(=O)[C@@H](NC(=O)[C@H](Cc2ccc(O)cc2)NC(=O)[C@@H](N)CC#N)CSSC[C@@H]2NC(=O)[C@@H]3CSSC[C@@H](C(=O)N[C@@H](CCCNC(=N)N)C(=O)N[C@@H](CCCCN)C(=O)N[C@@H](CCC(=O)O)C(=O)N[C@H](C(N)=O)[C@@H](C)CC)NC(=O)[C@H](Cc4c[nH]c5ccccc45)NC(=O)[C@H](CC(C)C)NC(=O)[C@H](CCCCN)NC(=O)[C@H](CSSC[C@H](NC(=O)[C@H]([C@@H](C)O)NC(=O)[C@H](Cc4c[nH]c5ccccc45)NC1=O)C(=O)N[C@@H](CC(=O)O)C(=O)N[C@@H](CO)C(=O)N[C@@H](CCCCN)C(=O)N[C@@H](CCCNC(=N)N)C(=O)N[C@@H](CCCCNC(=O)CCOCCOCCOCCOCCOCCOCCOCCOCCOCCOCCOCCOCCN)C(=O)N3)NC(=O)[C@H](CCCNC(=N)N)NC(=O)[C@H](CC(C)C)NC(=O)CNC(=O)[C@H](CCC(=O)O)NC2=O [compound 455],86,1101
CCCC[C@@H]1NC(=O)[C@H](Cc2c[nH]c3ccccc23)NC(=O)[C@H](CCCCN)NC(=O)[C@H](CCC(N)=O)NC(=O)[C@@H](NC(=O)[C@H](Cc2ccc(O)cc2)NC(=O)[C@@H](C)N)CSSC[C@@H]2NC(=O)[C@@H]3CSSC[C@@H](C(=O)N[C@@H](CCCNC(=N)N)C(=O)N[C@@H](CCCCN)C(=O)N[C@H](C(=O)N[C@H](C(N)=O)[C@@H](C)CC)[C@@H](C)CC)NC(=O)[C@H](Cc4c[nH]c5ccccc45)NC(=O)[C@H](CC(C)C)NC(=O)[C@H](CCCCN)NC(=O)[C@H](CSSC[C@H](NC(=O)[C@H]([C@@H](C)O)NC(=O)[C@H](Cc4c[nH]c5ccccc45)NC1=O)C(=O)N[C@@H](CC(=O)O)C(=O)N[C@@H](CO)C(=O)N[C@@H](CCCCN)C(=O)N[C@@H](CCCNC(=N)N)C(=O)N[C@@H](C)C(=O)N3)NC(=O)[C@H](CCCNC(=N)N)NC(=O)[C@H](CC(C)C)NC(=O)CNC(=O)[C@H](CCC(=O)O)NC2=O [compound 372],5,764
